Entries after “also recorded” stand apart in the source; their conditions may differ. Where two headings read alike, the source gives them in different places.
Key:
mushroom tyrosinase [1] = biological target: T1, mushroom tyrosinase (Agaricus bisporus, UniProt C7FF04); experiment: Mushroom tyrosinase inhibition assay (L-DOPA as substrate); format: biochemical
Method: All test samples were first dissolved in DMSO at 50 mM and diluted to the required concentrations. First, […] of tyrosinase (0.5 mg ml) was mixed with 160 μl of 50 mM phosphate buffer (pH = 6.8) in 96-well microplates and then 10 μl of different concentration of the test sample was added. […] DMSO without test compounds and kojic acid were used as the control and positive control respectively. The tyrosinase activity without inhibitor was defined as 100%. Each concentration was analyzed in three independent experiments run in triplicate.

mushroom tyrosinase [2] = biological target: T1, mushroom tyrosinase; experiment: Kinetic study of tyrosinase inhibition (Lineweaver-Burk plot, L-DOPA as substrate); format: biochemical; settings: for Vm: L-DOPA 0.25-1 mM
Method: The inhibition constants, Ki, and Vm for tyrosinase inhibitors were determined by fitting the kinetic data to a competitive, noncompetitive, or mixed inhibition model by nonlinear regression analysis using GraphPad Prism.
To determine the inhibition kinetics of vaniline-benzylidenehydrazine a series of experiments were performed. Different concentrations of the 4i (0, 10 and 25 µM) was chosen to get a series of straight lines. Pre-incubation and measurement time were the same as discussed in mushroom tyrosinase inhibition assay protocol. The maximal velocity (Vmax) and the Michaelis constant (Km) of the tyrosinase activity were determined by the Line weaver Burk plot at various concentrations of L-DOPA (0.25, 0.5, 0.75 and 1 mM) as a substrate. The inhibition type of the enzyme was assayed by Line weaver Burk plots of inverse of velocities (1/V) versus inverse of substrate concentrations 1/[S] mM.

[3] = L-DOPA as the substrate, mean ± SEM of three to five independent experiments, read-out: IC50 against tyrosinase enzyme

T1 sequence (C7FF04 1-392): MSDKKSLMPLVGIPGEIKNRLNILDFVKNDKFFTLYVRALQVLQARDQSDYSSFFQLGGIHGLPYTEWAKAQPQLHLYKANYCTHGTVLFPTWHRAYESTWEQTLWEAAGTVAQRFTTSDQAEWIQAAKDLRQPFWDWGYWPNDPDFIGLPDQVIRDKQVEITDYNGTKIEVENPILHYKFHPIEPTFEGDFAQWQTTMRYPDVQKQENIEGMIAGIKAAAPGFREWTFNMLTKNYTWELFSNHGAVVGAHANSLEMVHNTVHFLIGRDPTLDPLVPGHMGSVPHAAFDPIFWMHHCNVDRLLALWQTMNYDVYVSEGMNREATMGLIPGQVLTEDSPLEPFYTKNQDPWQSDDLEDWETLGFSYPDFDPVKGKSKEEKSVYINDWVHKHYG

Compound | IC50 (mushroom tyrosinase [1]; [3]) | melting point | Vm (mushroom tyrosinase [2]; 4i at 10 µM) | Vm (mushroom tyrosinase [2]; 4i at 25 µM) | Type of inhibition (mushroom tyrosinase [2]; Lineweaver-Burk plot, 4i at 0, 10 and 25 µM) | IC50 (mushroom tyrosinase [1])
COc1cc(C(=O)N/N=C/c2ccc(Br)cc2)ccc1O [Compound 4e, (E)-Nʹ-(4-bromobenzylidene)-4-hydroxy-3-methoxybenzohydrazide] | 1.95 ± 2.34 µM | 115 °C | – | – | – | –
COc1cc(C(=O)N/N=C/c2ccc([N+](=O)[O-])cc2)ccc1O [Compound 4f, (E)-4-hydroxy-3-methoxy-Nʹ-(4-nitrobenzylidene)benzohydrazide] | 29.1 ± 0.89 µM | 195 °C | – | – | – | –
CCOc1cc(/C=N/NC(=O)c2ccc(O)c(OC)c2)ccc1O [Compound 4i, (E)-Nʹ-(3-ethoxy-4-hydroxybenzylidene)-4-hydroxy-3-methoxybenzohydrazide] | – | – | 0.18 OD/Min | 0.17 OD/Min | uncompetitive inhibition; also recorded: uncompetitive inhibitor | 1.58 µM
COc1ccc(/C=N/NC(=O)c2ccc(O)c(OC)c2)cc1 [Compound 4c, (E)-4-hydroxy-3-methoxy-Nʹ-(4-methoxybenzylidene)benzohydrazide] | 35.6 ± 2.8 µM | 110 °C | – | – | – | –
COc1cc(C(=O)N/N=C/c2ccc(OC)c(OC)c2)ccc1O [Compound 4d, (E)-Nʹ-(3,4-dimethoxybenzylidene)-4-hydroxy-3-methoxy benzohydrazide] | 20.9 ± 2.09 µM | 231 °C | – | – | – | –
COc1cc(C(=O)N/N=C/c2ccc(O)cc2O)ccc1O [Compound 4a, (E)-Nʹ-(2,4-dihydroxybenzylidene)-4-hydroxy-3-methoxybenzohydrazide] | 37.1 ± 1.02 µM | 243 °C | – | – | – | –
COc1cc(C(=O)N/N=C/c2ccc(O)cc2)ccc1O [Compound 4b, (E)-4-hydroxy-Nʹ-(4-hydroxybenzylidene)-3-methoxybenzohydrazide] | 15.2 ± 1.34 µM | 256 °C | – | – | – | –

Continued, in another order:

IC50 (mushroom tyrosinase [1]; [3]) | melting point | Compound | Vm (mushroom tyrosinase [2]; 4i at 10 µM) | Vm (mushroom tyrosinase [2]; 4i at 25 µM) | Type of inhibition (mushroom tyrosinase [2]; Lineweaver-Burk plot, 4i at 0, 10 and 25 µM) | IC50 (mushroom tyrosinase [1])
10 ± 1.6 µM | 98 °C | COc1ccc(/C=N/NC(=O)c2ccc(O)c(OC)c2)cc1O [Compound 4h, (E)-4-hydroxy-Nʹ-(3-hydroxy-4-methoxybenzylidene)-3-methoxybenzohydrazide] | – | – | – | –
17 ± 2.03 µM | 151 °C | COc1cc(C(=O)N/N=C/c2ccccc2[N+](=O)[O-])ccc1O [Compound 4j, (E)-4-hydroxy-3-methoxy-Nʹ-(2-nitrobenzylidene)benzohydrazide] | – | – | – | –
5.84 ± 1.9 µM | 151 °C | COc1cc(C(=O)N/N=C/c2cccc([N+](=O)[O-])c2)ccc1O [Compound 4k, (E)-4-hydroxy-3-methoxy-Nʹ-(3-nitrobenzylidene)benzohydrazide] | – | – | – | –
4.58 µM | 151 °C | COc1cc(C(=O)N/N=C/c2cc(OC)c(O)c(OC)c2)ccc1O [Compound 4g, (E)-4-hydroxy-Nʹ-(4-hydroxy-3,5-dimethoxybenzylidene)-3-methoxy benzohydrazide] | – | – | – | –

Source: PMC7137441, “Synthesis, biological evaluation and molecular docking analysis of vaniline–benzylidenehydrazine hybrids as potent tyrosinase inhibitors” (BMC Chemistry, 2020)
